Read-outs that look alike come from different tables or passages of the source. *1 amine or outer side, *2 acyl side, *3 side chain or, on linkers, in order; H or OH if unused. Where a SMILES comes first, the peptide text is derived from it. Where no end group is shown, it is not given here. [ ]: non-standard residue; d: D form. hGln = L-homoglutamine, NC(=O)CCC[C@H](N[*:1])C(=O)[*:2]; pyridine‑bisazole = not defined here; Nle = CCCC[C@H](N)C(=O)O; Dhb = C/C=C(\N)C(=O)O
What was measured:
[1] = Serum stability assay; type: in vitro ADME; details: human serum, 37 °C, LC/MS; for half-life at 10 µM: pH 7.6, read-out: serum stability τ1/2 (converted)
Procedure: Next, we tested the metabolic stability of the discovered thiopeptides. The compounds were incubated in human serum at 37 °C in the presence of an internal control, and the amounts of the remaining analytes were quantified by LC/MS (Figures S27 and 28). […] At the other extreme, IR11 rapidly degraded in human serum with τ1/2 = 0.5 h. […]
Kinetic parameters and affinities of the […]
2.12. Thiopeptide metabolic stability experiments
The mixtures were stirred
well and transferred to a 37 °C thermostat. […]

[2] = molecular target: T1, Biotinylated IRAK4 (kinase domain, amino acids 1-460; NP_057207.2) (Homo sapiens, UniProt Q9NWZ3); assay: Surface plasmon resonance binding to IRAK4
T1 construct: acids 1-460; NP_057207.2) was purchased from Carna Biosciences; purchased Carna Biosciences (Kobe, Japan)
T1 sequence (Q9NWZ3 1-460): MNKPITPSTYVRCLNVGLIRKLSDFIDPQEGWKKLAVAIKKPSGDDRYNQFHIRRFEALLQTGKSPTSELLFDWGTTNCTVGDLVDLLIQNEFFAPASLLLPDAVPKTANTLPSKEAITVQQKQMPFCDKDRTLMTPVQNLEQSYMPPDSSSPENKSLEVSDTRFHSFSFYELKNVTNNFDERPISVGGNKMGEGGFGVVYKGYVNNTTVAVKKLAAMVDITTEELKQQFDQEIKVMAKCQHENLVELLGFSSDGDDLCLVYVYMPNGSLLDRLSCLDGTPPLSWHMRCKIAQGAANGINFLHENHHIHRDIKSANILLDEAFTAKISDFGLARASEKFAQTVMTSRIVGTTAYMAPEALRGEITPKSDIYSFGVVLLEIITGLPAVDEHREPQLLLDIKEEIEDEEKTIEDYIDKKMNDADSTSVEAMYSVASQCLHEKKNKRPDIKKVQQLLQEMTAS
Description: Reagents were purchased from Nacalai Tesque, Wako Pure Chemical Industries, Sigma-Aldrich Japan, or TCI Chemicals and were used as received. Biotinylated IRAK4 (kinase domain, amino acids 1-460; NP_057207.2) was purchased from Carna Biosciences (Kobe, Japan). Recombinant human TLR10 Fc Chimera protein (extracellular domain, amino acid 20-576; Q9BXR5) was purchased from R&D system (#6619-TR-050). Anti-HA magnetic beads were from Pierce Thermo Fisher Scientific (#88836). Magnetic beads with immobilized streptavidin were from Invitrogen (Dynabeads Streptavidin C1, # 65001). Magnetic beads with immobilized streptavidin were from Invitrogen (Dynabeads Streptavidin M280, #11206D).
Protein purification and synthesis of Streptomyces lactacystinaeus tRNAGlu were done as previously described.1–3 Protein concentration measurements were carried out on a Nanodrop 2000c spectrophotometer (Thermo Scientific) equipped with a 5 mm pathlength quartz cuvette using extinction coefficient values calculated with ExPASy ProtParam tool (https://web.expasy.org/protparam).
Biochemical measurements (sections 2.10 – 2.14) were performed in triplicate or more. Most experiments were reproduced to an analogous outcome at least once. In the cases where the determination of biophysical parameters involved cell assay (CP50 and IC50), reported are standard errors of the fit; otherwise, error bars are standard deviations.
RNA extracted from the gel with 300 mM NaCl were collected by ethanol precipitation followed by centrifugation (15300 g for 15 min) and dissolved in water for storage. tRNAini was aminoacylated with eFx using biotin-Phe-CME as a substrate. tRNAini (25 µM) and eFx (25 µM) were incubated with biotin-Phe-CME (5 mM) in HEPES-KOH buffer (50 mM; pH 7.5) containing 600 mM MgCl2 on ice for 2 h. The reactions were stopped with the addition of 300 mM NaOAc (pH 5.2), and precipitated with ethanol. Precipitated RNA was recovered by centrifugation (15300 g for 15 min). The pellet was washed with 70% ethanol in water (v/v) containing 100 mM NaOAc (pH 5.2) and used in translation.
2.10. Surface plasmon resonance
Binding affinities between the thiopeptides and IRAK4/TLR10 were measured with a Biacore 8K instrument (GE Healthcare) at 25 °C. The assay buffer for IRAK4 binding analysis contained 50 mM Tris (pH 7.5), 150 mM NaCl, 10 mM MgCl2, 0.05% (v/v) tween-20 and 0.1% (v/v) DMSO. The […]
Biotinylated IRAK4 was immobilized on a Biacore CAP chip (GE Healthcare) to a surface density […]
step was allowed to proceed for 480 s. Kinetic parameters and affinities of the interaction were […]
provided by the manufacturer. The interaction sensorgrams were measured as single -cycle […]
Kinetic parameters and affinities of the
Evaluation Software v.3.0 (GE Healthcare).

[3] = molecular target: T2, IRAK4 (Homo sapiens, UniProt Q9NWZ3); assay: mRNA display affinity selection against IRAK4, NGS abundance; type: binding; design: acids 1-460; NP_057207.2) was purchased from Carna Biosciences; purchased Carna Biosciences (Kobe, Japan); details: IRAK4 selection, NGS abundance rank
T2 sequence (Q9NWZ3 1-460): T1 sequence (Q9NWZ3 1-460)

[4] = molecular target: T2, IRAK4; assay: Single-round mRNA display binding assay (qPCR), IRAK4; design: acids 1-460; NP_057207.2) was purchased from Carna Biosciences; purchased Carna Biosciences (Kobe, Japan); details: ratio of cDNA recoveries (qPCR), IRAK4 pulldown over beads only, single-round selection
[5] = molecular target: T2, IRAK4; assay: biochemical
[6] = tested on: THP1-XBlue cells; assay: Cell viability with Cell Counting Kit-8; details: at the tested concentrations
Procedure: 2.13. NF-kB signaling pathway inhibition assay
THP-1 Cellular Assay. THP1-XBlue cells containing an NF-kB-inducible secreted embryonic alkaline phosphatase (SEAP) reporter gene (InvivoGen) were seeded to 96-well assay plates (10^5 cells/well) with RPMI 1640 culture medium containing 10% fetal calf serum. The cells were pre-treated with various concentration of analyte thiopeptide inhibitor in 0.1% DMSO and incubated at 37 °C for 6 h. LPS-EK (30 ng/mL, InvivoGen) was subsequently added to activate the NF-kB signalling for 20 h. To quantitate SEAP activity, supernatants were harvested (300 g, 5min) and mixed with Quanti-Blue (InvivoGen) detection reagent following the manufacturer’s instructions.
Cells were assayed with cell counting kit-8 in parallel to rule out potential cytotoxicity. The plates

[7] = molecular target: T3, interleukin-1 receptor-associated kinase 4 (UniProt Q9NWZ3 1-460); assay: cell-based or functional assay
T3 sequence (looked up): T1 sequence (Q9NWZ3 1-460)

[8] = molecular target: T4, interleukin-1 receptor-associated kinase 4 (UniProt Q9NWZ3 1-460); assay: SPR; surface plasmon resonance of synthetic thiopeptides on their target protein; conditions in S.I. 2.10 (not shown); details: both partners purified
T4 construct: interleukin-1 receptor-associated kinase 4 (IRAK4); also called IRAK4; IRAK4 kinase
T4 sequence (looked up): T1 sequence (Q9NWZ3 1-460)

Molecule: C=C1NC(=O)[C@H](CCCCN)NC(=O)[C@H](Cc2c[nH]c3ccccc23)NC(=O)[C@H]([C@@H](C)O)NC(=O)[C@H](CCCNC(=N)N)NC(=O)[C@H](CCCNC(=N)N)NC(=O)[C@H](CCCCN)NC(=O)[C@H](Cc2c[nH]c3ccccc23)NC(=O)[C@H](CCCC(N)=O)NC(=O)[C@H](CC(C)C)NC(=O)[C@H]([C@@H](C)O)NC(=O)[C@H](Cc2c[nH]c3ccccc23)NC(=O)c2ccc(-c3nc(C(=O)OC)cs3)nc2-c2csc1n2 [IR8] (HELM PEPTIDE1{W.T.L.[O=C([C@H](CCCC(=O)[*:3])N[*:1])[*:2]].W.K.R.R.T.W.K}|PEPTIDE2{[am]}|CHEM1{[C=C(N[*:2])c1nc(-c2nc(-c3nc(C(=O)OC)cs3)ccc2C(=O)[*:1])cs1]}$PEPTIDE1,PEPTIDE2,4:R3-1:R1|PEPTIDE1,CHEM1,1:R1-1:R1|PEPTIDE1,CHEM1,11:R2-1:R2$$$V2.0; bridges inferred)
- half-life at 10 µM [1]: 42 ± 4.8 min
- koff [2]: 0.027 s⁻¹
- kon [2]: 1.24e+06 M⁻¹ s⁻¹
- rank in pulldown(+) [3]: 9
- rank in pulldown(–) [3]: 9
- display P/N ratio [4]: 152

Molecule: C=C1NC(=O)[C@H](Cc2c[nH]cn2)NC(=O)[C@@H]2CCCN2C(=O)[C@H](CCCNC(=N)N)NC(=O)[C@H](CCCNC(=N)N)NC(=O)[C@H](CCCNC(=N)N)NC(=O)[C@H](C)NC(=O)[C@H](Cc2c[nH]c3ccccc23)NC(=O)[C@H](Cc2ccc(O)cc2)NC(=O)[C@H](CC(C)C)NC(=O)[C@H](CO)NC(=O)[C@H](CCSC)NC(=O)[C@H](C)NC(=O)[C@H](Cc2c[nH]c3ccccc23)NC(=O)c2ccc(-c3nc(C(=O)OC)cs3)nc2-c2csc1n2 [IR11] (HELM PEPTIDE1{W.A.M.S.L.Y.W.A.R.R.R.P.H}|CHEM1{[C=C(N[*:2])c1nc(-c2nc(-c3nc(C(=O)OC)cs3)ccc2C(=O)[*:1])cs1]}$PEPTIDE1,CHEM1,1:R1-1:R1|PEPTIDE1,CHEM1,13:R2-1:R2$$$V2.0)
- serum stability τ1/2 [1]: 0.5 h
- half-life at 10 µM [1]: 30 ± 2.4 min
- koff ([2]; SPR, IRAK4, read-out: koff): 0.0021 s⁻¹
- kon ([2]; SPR, IRAK4, read-out: kon): 783 M⁻¹ s⁻¹
- rank in pulldown(+) [3]: 30
- rank in pulldown(–) [3]: 15
- display P/N ratio [4]: 1072
- IC50 [5]: 4.1 ± 0.3 µM

Molecule: CC[C@@H]1[C@H](F)C(=O)N[C@@H]1COc1nccc2cc(C(N)=O)c(OC)cc12 [PF-06650833, 1-{[(2S,3S,4S)-3-Ethyl-4-fluoro-5-oxopyrrolidin-2-yl]methoxy}-7-methoxyisoquinoline-6-carboxamide, reference compound]
- cytotoxicity (Cell Counting Kit-8) [6]: not cytotoxic

B1: thiopeptide IR1 (synthetic) (peptide)
chain: SWS[Nle]KRQFITWHW[Dhb]SCSC
modifications: bridge (positions not given here) via pyridine‑bisazole; not fully specified; reading uncertain; also: dehydroamino acids, macrocycle with pyridine-bisazole moiety, oxazole to thiazole mutation
- IC50, lipopolysaccharide-induced NF-κB signaling (secreted alkaline phosphatase reporter) in THP1-XBlue monocytes [7]: 7 µM

B2: thiopeptide IR1 (synthetic) (peptide)
chain: SWS[Nle]KRQFITWHW[Dhb]SCSC
modifications: bridge (positions not given here) via pyridine‑bisazole; reading uncertain; also: macrocycle closed through pyridine-bisazole moiety, oxazole to thiazole change
- Kd [8]: 0.23 µM

B3: thiopeptide IR8 (synthetic) (peptide)
chain: SWTL[hGln]WKRRTWKSCSC
modifications: bridge (positions not given here) via pyridine‑bisazole; reading uncertain; also: macrocycle closed through a pyridine-bisazole moiety, oxazole to thiazole change
- Kd [8]: 0.022 µM

B4: thiopeptide IR11 (synthetic) (peptide)
chain: SWAMSLYWARRRPHSCSC
modifications: bridge (positions not given here) via pyridine‑bisazole; reading uncertain; also: macrocycle closed through pyridine-bisazole moiety, oxazole to thiazole change
- Kd [8]: 2.7 µM

— article PMC10683472, “Deep Learning-Driven Library Design for the De Novo Discovery of Bioactive Thiopeptides” (ACS Central Science, 2023)
